Measured values reported in patent publication US12193441B2, “Antimicrobial mixtures comprising at least one hydroxyphenone derivative” (SYMRISE AG, priority 2018, dated 2025).

Tested on: subcutaneous inflammation
Test: not given
Conditions: administered intraperitoneally; cited from earlier work

Row | Molecule | reduction of subcutaneous inflammation
1 | CC(=O)c1ccc(O)cc1 [4-Hydroxyacetophenone] | one of the active compounds reducing subcutaneous inflammation

Tested on: A. brasiliensis
Test: Minimum Inhibitory Concentration (MIC) and Kull synergy index against A. brasiliensis
Type: cell-based
Design: unit not given here
Conditions: not given
Excerpt: To calculate the synergism between compounds of formula (I) and other antimicrobial actives, the Kull equation^1 2 was used SI=(Cmixture×PA)/CA+(Cmixture×PB)/CB (I) • where • SI is the Synergy Index according to Kull^1), 2) • CA is the […] for substance A • CB is the cell count for substance B • Cmixture is the cell count for the mixture of substances A and B • PA is the proportion of the substance A in the mixture • PB is the proportion of the substance B in the mixture. ^1 Kull, F. C., Eismann, P. C., Sylvestrowicz, H. D., and R. L. Mayer (1961). Mixtures of Quaternary Ammonium Compounds and Long-chain Fatty Acids as Antifungal Agents. Applied Microbiology 9, 538-541.^2 Steinberg, D. C. (2000). Measuring Synergy. Cosmetics & Toiletries 115 (11), 59-62.
Antimicrobil activity was evaluated by determining the Minimum Inhibitory Concentration (MIC) representing the lowest concentration of a chemical which prevents visible growth of a bacterium.
The MIC values were determined by preparing solutions of the chemical in vitro at increasing concentrations, incubating the solutions with the separate batches of cultured bacteria, and measuring the results using agar dilution or broth microdilution. Results have been graded into susceptible (often called sensitive), intermediate, or resistant to a particular antibiotic by using a cutoff point. Cut off points are agreed upon values, published in guidelines of a reference body, such as the U.S. Clinical and Laboratory Standards Institute (CLSI), the British Society for Antimicrobial Chemotherapy (BSAC) or the European Committee on Antimicrobial Susceptibility Testing (EUCAST).

Row | Molecule | MIC (Comparison: MIC values for the actives taken alone)
2 | C/C=C/C=C/C(=O)[O-].[K+] [Potassium sorbate] | 5000

Same assay, conditions: active taken alone; A. brasiliensis

Row | Molecule | MIC (Comparison: MIC values for the actives taken alone)
3 | OCCCO [1,3-Propanediol] | 200.000
4 | CC(=O)c1ccc(O)cc1 [4-Hydroxyacetophenone] | 2500
5 | Cc1cc(O)ccc1C(C)C [4-Isopropyl-3-methylphenol] | 250
6 | OCc1ccccc1 [Benzyl alcohol] | 5000
7 | O=[N+]([O-])C(Br)(CO)CO [Bronopol, 2-bromo-2-nitro-1,3-propanediol] | 2000
8 | CCCCCCCC(=O)NCC(=O)O [Capryloyl glycine] | 60.000
9 | CC(C)(C)C(=O)C(Oc1ccc(Cl)cc1)n1ccnc1 (stereo not shown) [Climbazol, Crinipan, Climbazol] | 64
10 | CCCCCCCCCCCC(=O)N[C@@H](CCCN=C(N)N)C(=O)OCC.Cl [Ethyl lauroyl arginate HCl] | 2.000
11 | O=C(O)CN(CCN(CC(=O)O)CC(=O)O)CC(=O)O [Ethylene diamine tetra acetate (EDTA), Ethylene diamine tetra acetate] | 40.000
12 | CCCCCCCCCC(=O)OCC(O)CO (stereo not shown) [Glyceryl caprate] | 2.000
13 | CCCCNC(=O)OCC#CI [IPBC, 3-Iodo-2-propynylbutylcarbamate, 3-Iodo-2-propynylbutylcarbamate] | 1
14 | Cc1cc(CC(C)CC(C)(C)C)n(O)c(=O)c1.NCCO (stereo not shown) [Piroctone oleamine, Octopyrox, 1-hydroxy-4-methyl-6-(2,4,4-trimethylpentyl)-2-(1H)-pyridinone monoethanolamine salt] | 64
15 | O=C([O-])c1ccccc1.[Na+] [Sodium benzoate] | 10.000
16 | Oc1cc(Cl)ccc1Oc1ccc(Cl)cc1Cl [Triclosan, 2,4,4′-trichloro-2′-hydroxy-diphenyl ether] | 32
17 | C=CCCCCCCCCC(=O)NCC(=O)O [Undecenoyl glycin] | 5.000
18 | C=CCCCCCCCCC(=O)O [Undecylenic acid, Undec-10-enoic acid, Undec-10-enoic acid] | 500
19 | Glceryl caprylate | 2.000
20 | Sorbitan caprylate | 4000

Tested on: not given
Test: not given
Conditions: chemical in vitro assay; constituent of Tagetes mendocina; cited from earlier work

Row | Molecule | antioxidant activity
21 | CC(=O)c1ccc(O)cc1 [4-Hydroxyacetophenone] | one of the active constituents

Tested on: mold growth on moist alfalfa hay
Test: not given
Conditions: preservation of moist alfalfa hay; cited from earlier work

Row | Molecule | prevention of mold growth
22 | CC(=O)c1ccc(O)cc1 [4-Hydroxyacetophenone] | not prevent mold growth
